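All cell lines were grown in 96-well plates and treated with compound for 48 hours. Definition used: TGI = concentration required for complete inhibition of growth.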
Assays:
Assay in all cases: DTP human tumour cell line panel, 48 h
[1] = system: SF-539 CNS
[2] = system: MCF7 breast
[3] = system: NCI-H226 lung
[4] = system: KM12 colon
[5] = system: SF-295 CNS
[6] = system: T-47D breast
[7] = system: UACC-62 melanoma
[8] = system: MDA-N
[9] = system: IGROV1 ovarian
[10] = system: MDA-MB-231 breast
[11] = system: SN12C renal
[12] = system: MOLT-4 leukemia
[13] = system: DU-145 prostate
[14] = system: UO-31 renal
[15] = system: PC-3 prostate
[16] = system: NCI-H460 lung
[17] = system: SR leukemia
[18] = system: SNB-19 CNS
[19] = system: HCC-2998 colon
[20] = system: HOP-92 NSCLC

SMILES | TGI [1] [µM] | TGI [2] [µM] | TGI [3] [µM] | TGI [4] [µM] | TGI [5] [µM] | TGI [6] [µM] | TGI [7] [µM] | TGI [8] [µM] | TGI [9] [µM] | TGI [10] [µM] | TGI [11] [µM] | TGI [12] [µM] | TGI [13] [µM] | TGI [14] [µM] | TGI [15] [µM] | TGI [16] [µM] | TGI [17] [µM] | TGI [18] [µM] | TGI [19] [µM] | TGI [20] [µM]
CN(CCCn1ccnc1[N+](=O)[O-])CCCn1ccnc1[N+](=O)[O-] | > 100 | > 100 | > 100 | > 100 | > 100 | > 100 | > 100 | > 100 | > 100 | > 100 | > 100 | > 100 | > 100 | > 100 | > 100 | > 100 | > 100 |  |  | 
O=c1c2ccccc2[nH]c2c(Cl)cc(Cl)c(N3CCCCC3)c12 | 46.6 | > 100 | 62 | 54.9 | > 100 | > 100 | > 10 | 63.1 | 48.2 | > 100 | 55.8 | > 100 |  | 55.5 | > 100 |  | > 100 | 77.9 | > 100 | 
N#Cc1c(O)c2ccccc2[nH]c1=O | > 100 | > 100 | > 100 | > 100 | > 100 | > 100 | > 100 | > 100 | > 100 | > 100 | > 100 | > 100 | > 100 | > 100 | > 100 |  |  | > 100 | > 100 | > 100
CCCC(=O)NC(Nc1ccc(S(=O)(=O)Nc2ccc(OC)nn2)cc1)(C(F)(F)F)C(F)(F)F | > 100 |  | > 100 | > 100 | > 100 | > 100 | > 100 | > 100 | > 100 | > 100 | > 100 | > 100 | > 100 | > 100 | > 100 | > 100 | > 100 | > 100 | > 100 | > 100
Cc1c(F)c(NC(=O)CN(C)C)c2c(=O)cc(-c3ccc(NC(=O)CN(C)C)c(F)c3)oc2c1F | 31.2 | 28.3 | 29.2 | 30.5 | 28.9 | 55.8 | 34.8 | 34 | 32.1 | 26.9 | 36.3 | 31.9 | 26.5 | 26.9 | 33.8 | 29 | 6.15 | 41.2 | 19 | 
COc1cc(C2c3c(ccc4ccccc34)C(=O)C3CCC(=O)N32)cc(OC)c1O (stereo not drawn) | > 25 | > 25 | > 25 | > 25 | > 25 | > 25 | > 25 | > 25 | > 25 |  | > 25 | > 25 | > 25 | > 25 | > 25 | > 25 | > 25 | > 25 |  | > 25

— PubChem BioAssay (NCI)
